SMILES strings stand for the structures.

The results in this text go back to US9096560B2, “5-heterocyclylalkyl-3-hydroxy-2-phenylcyclopent-2-enones as herbicides” (Syngenta Limited, priority 2008, dated 2015).

Format in all cases: in vivo
Test [1] relates to Winter Wheat variety 'Hereward'. Put plainly: Example C crop damage test on Winter Wheat, post-emergence, no safener. To be noted: Triticum aestivum, 312 h, rate 250 g/ha, evaluated after 13 days, read-out: Winter Wheat (Hereward) damage (100=total damage to plant; 0=no damage to plant). On the procedure: Seeds of the Winter Wheat variety ‘Hereward’ were sown in standard soil in pots. After 8 days cultivation under controlled conditions in a glasshouse (at 24/16° C., day/night; 14 hours light; 65% humidity), the plants were sprayed with an aqueous spray solution derived from the formulation of the technical active ingredient in acetone/water (50:50) solution containing 0.5% Tween 20 (polyoxyethelyene sorbitan monolaurate, CAS RN 9005-64-5). The test plants were then grown in a glasshouse under controlled conditions in a glasshouse (at 24/16° C., day/night; 14 hours light; 65% humidity) and watered twice daily. After 13 days for pre and post-emergence, the test was evaluated (100=total damage to plant; 0=no damage to plant).

For test [2], the system named is Avena fatua (AVEFA). Put plainly: Example B pre-emergence herbicidal test, AVEFA. To be noted: Avena fatua, 312 h, rate 250 g/ha, evaluated after 13 days, 100=total damage to plant, 0=no damage to plant. The method, boiled down:
(§1)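 Pre-emergence spray one day after sowing; vehicle acetone/water (50:50), 0.5% Tween 20. Percent damage (0 = no effect, 100 = plant killed) recorded 13 days later.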

Test [3] relates to Alopecurus myosuroides (ALOMY). The experiment in a line: Example B pre-emergence herbicidal test, ALOMY. The note with it: Alopecurus myosuroides, 312 h, rate 250 g/ha, evaluated after 13 days, 100=total damage to plant, 0=no damage to plant. The method, boiled down:
as §1

In test [4] the test system is Alopecurus myosuroides (ALOMY). Put plainly: Example B post-emergence herbicidal test, ALOMY. The note with it: Alopecurus myosuroides, 312 h, rate 250 g/ha, evaluated after 13 days, scale 0-100, read-out: Post-emergence activity ALOMY (100=total damage to plant; 0=no damage to plant). The procedure, abridged:
(§2)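 Plants grown 8 days in glasshouse (24/16 °C day/night, 14 h light, 65% humidity), then sprayed with aqueous solution from acetone/water (50:50) formulation with 0.5% Tween 20. Damage scored 13 days later on a 0–100 scale (100 = total damage).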

Test [5] has as its system Lolium perenne (LOLPE). The experiment in a line: Example B pre-emergence herbicidal test, LOLPE. To be noted: Lolium perenne, 312 h, rate 250 g/ha, evaluated after 13 days, 100=total damage to plant, 0=no damage to plant. The procedure, abridged: as §1
For test [6], the system named is Winter Wheat variety 'Hereward' seed treated with cloquintocet mexyl. The experiment in a line: Example C crop damage test on Winter Wheat seed treated with safener cloquintocet mexyl, post-emergence. The note with it: rate 250 g/ha, seed treated with cloquintocet mexyl 0.5 grams per kilogram of dry seed, evaluated after 13 days. On the procedure:
Seeds of the Winter Wheat variety ‘Hereward’ were seed treated with a wettable powder formulation of the cereal herbicide safener, cloquintocet mexyl, at a rate of 0.5 grams per kilogram of dry seed prior to the initiation of glasshouse testing. One seed was sown per 1.5 inch plastic pot into a sandy loam soil at a depth of 1 cm, 8 days prior to application of the test compounds and was watered and grown under controlled conditions in a glasshouse (at 24/16° C., day/night; 14 hours light; 65% humidity). The plants were sprayed Post-emergence with an aqueous spray solution derived from the formulation of the technical active ingredient in acetone/water (50:50) solution containing 0.5% Tween 20 (polyoxyethelyene sorbitan monolaurate, CAS RN 9005-64-5). The test plants were then grown in a glasshouse under controlled conditions in a glasshouse (at 24/16° C., day/night; 14 hours light; 65% humidity) and watered twice daily. After 13 days for pre and post-emergence, the test was evaluated (100=total damage to plant; 0=no damage to plant).

Test [7] has as its system Avena fatua (AVEFA). The experiment in a line: Example B post-emergence herbicidal test, AVEFA. The note with it: Avena fatua, 312 h, rate 250 g/ha, evaluated after 13 days, scale 0-100, read-out: Post-emergence activity AVEFA (100=total damage to plant; 0=no damage to plant). The procedure, abridged: as §2
The subject of test [8] is Echinochloa crus-galli (ECHCG). The experiment in a line: Example B post-emergence herbicidal test, ECHCG. The note with it: Echinochloa crus-galli, 312 h, rate 250 g/ha, evaluated after 13 days, scale 0-100, read-out: Post-emergence activity ECHCG (100=total damage to plant; 0=no damage to plant). The method, boiled down:
as §2

The test system of test [9] is Lolium perenne (LOLPE). The experiment in a line: Example B post-emergence herbicidal test, LOLPE. To be noted: Lolium perenne, 312 h, rate 250 g/ha, evaluated after 13 days, scale 0-100, read-out: Post-emergence activity LOLPE (100=total damage to plant; 0=no damage to plant). The method, boiled down:
as §2

The subject of test [10] is Echinochloa crus-galli (ECHCG). The experiment in a line: Example B pre-emergence herbicidal test, ECHCG. The note with it: Echinochloa crus-galli, 312 h, rate 250 g/ha, evaluated after 13 days, 100=total damage to plant, 0=no damage to plant. The procedure, abridged: as §1

As for `Cc1cc(C)c(C2C(=O)CC(CC3COCCO3)C2=O)c(C)c1` (stereo not shown) [Compound T40], in test [1], the crop damage to winter wheat at 250 g/ha is 60%. Also, the pest or weed control at 250 g/ha is 80% with Avena fatua (AVEFA) [2]; 100% in test [3]; 80% in [4]; 100% in the test with Lolium perenne (LOLPE) [5]; 90% in the test on Avena fatua (AVEFA) [7]; 100% in test [8]. In addition, the pest or weed control at 250 g/ha (in the test on Lolium perenne (LOLPE) [9]; in [10]) was 100% throughout. Moreover, in test [6], the “Winter Wheat (Hereward) + cloquintocet mexyl damage (100=total damage to plant; 0=no damage to plant)” value is given as 10.

With `Cc1cc(C)c(C2C(=O)CC(CC3CCN(C(=O)c4ccccc4)C3)C2=O)c(C)c1` (stereo not shown) [Compound T41], the crop damage to winter wheat at 250 g/ha in test [1] stood at 90%. Moreover, the pest or weed control at 250 g/ha in the test on Avena fatua (AVEFA) [2] is 90%; in [3] it was 70%; in [4], 100%; in the test on Lolium perenne (LOLPE) [5], 90%; with Avena fatua (AVEFA) [7], 100%; in [8], 100%. Moreover, the pest or weed control at 250 g/ha (with Lolium perenne (LOLPE) [9]; in test [10]) was 100% in each case. Besides, in test [6], the “Winter Wheat (Hereward) + cloquintocet mexyl damage (100=total damage to plant; 0=no damage to plant)” value stood at 80.

In the case of `Cc1cc(-c2ccc(Cl)cc2)cc(C)c1C1C(=O)C/C(=C\C2CCOCC2)C1=O` (stereo not shown) [Compound T62], the crop damage to winter wheat at 250 g/ha in test [1] worked out at 80%. The pest or weed control at 250 g/ha in the test on Avena fatua (AVEFA) [2] stood at 70%; in test [3], 80%; in test [4], 90%; in the test with Lolium perenne (LOLPE) [5] it was 100%; in the test with Avena fatua (AVEFA) [7], 100%; in [8] it was 100%. Moreover, the pest or weed control at 250 g/ha turned out to be 90% in the test with Lolium perenne (LOLPE) [9] and 100% in [10]. The “Winter Wheat (Hereward) + cloquintocet mexyl damage (100=total damage to plant; 0=no damage to plant)” value in test [6] came to 70.

On to `Cc1cc(-c2ccc(Cl)cc2)cc(C)c1C1C(=O)CC(CC2CCOCC2)C1=O` (stereo not shown) [Compound T64], for which the crop damage to winter wheat at 250 g/ha in [1] was 80%. Besides, the pest or weed control at 250 g/ha stood at 90% in the test on Avena fatua (AVEFA) [2]; 50% in [3]; 90% in test [4]; 100% in the test on Lolium perenne (LOLPE) [5]; 100% in the test with Avena fatua (AVEFA) [7]; 100% in test [8]. In addition, the pest or weed control at 250 g/ha was 90% in the test on Lolium perenne (LOLPE) [9] and 100% in [10]. In addition, the “Winter Wheat (Hereward) + cloquintocet mexyl damage (100=total damage to plant; 0=no damage to plant)” value in [6] is 70.

As to `Cc1cc(-c2ccccc2)cc(C)c1C1C(=O)C/C(=C\C2CCOCC2)C1=O` (stereo not shown) [Compound T66], the crop damage to winter wheat at 250 g/ha in test [1] is 50%. The pest or weed control at 250 g/ha with Avena fatua (AVEFA) [2] was 80%; in test [3], 90%; in [4] it was 90%; with Lolium perenne (LOLPE) [5], 80%; with Avena fatua (AVEFA) [7] it was 90%; in [8], 100%. The results for the pest or weed control at 250 g/ha (with Lolium perenne (LOLPE) [9]; in test [10]) were 60% and 100%, respectively. Further, the “Winter Wheat (Hereward) + cloquintocet mexyl damage (100=total damage to plant; 0=no damage to plant)” value in test [6] was found to be 20.

Take `Cc1cc(-c2ccccc2)cc(C)c1C1C(=O)CC(CC2CCOCC2)C1=O` (stereo not shown) [Compound T67]: the crop damage to winter wheat at 250 g/ha in test [1] was 70%. The pest or weed control at 250 g/ha in the test with Avena fatua (AVEFA) [2] stood at 90%; in [3] it was 90%; in test [4], 90%; in the test on Lolium perenne (LOLPE) [5], 100%; in the test on Avena fatua (AVEFA) [7] it was 100%; in test [8], 100%. For the same compound, the pest or weed control at 250 g/ha (in the test on Lolium perenne (LOLPE) [9]; in [10]) was 100% in each case. Further, the “Winter Wheat (Hereward) + cloquintocet mexyl damage (100=total damage to plant; 0=no damage to plant)” value in [6] is recorded as 30.

Take `Cc1cc(C)c(C2C(=O)CC(CC3CCN(C(=O)c4ccc(F)cc4)CC3)C2=O)c(C)c1` (stereo not shown) [Compound T75]: the crop damage to winter wheat at 250 g/ha in test [1] was 60%. Moreover, the pest or weed control at 250 g/ha in the test with Avena fatua (AVEFA) [2] came out at 70%; in [3], 30%; in test [4], 90%; with Lolium perenne (LOLPE) [5], 80%; with Avena fatua (AVEFA) [7], 100%; in [8] it was 90%. Moreover, the pest or weed control at 250 g/ha came to 100% in the test on Lolium perenne (LOLPE) [9] and 70% in test [10]. Also, the “Winter Wheat (Hereward) + cloquintocet mexyl damage (100=total damage to plant; 0=no damage to plant)” value in test [6] was 50.

`CCCC(=O)N1CCC(CC2CC(=O)C(c3c(C)cc(C)cc3C)C2=O)CC1` (stereo not shown) [Compound T84]: the crop damage to winter wheat at 250 g/ha in [1] is 70%. The pest or weed control at 250 g/ha was determined as 50% with Avena fatua (AVEFA) [2]; 50% in [3]; 90% in test [4]; 90% in the test with Lolium perenne (LOLPE) [5]; 100% in the test with Avena fatua (AVEFA) [7]; 90% in test [8]. The pest or weed control at 250 g/ha with Lolium perenne (LOLPE) [9] was determined as 100%; in [10] it was 60%. Moreover, in test [6], the “Winter Wheat (Hereward) + cloquintocet mexyl damage (100=total damage to plant; 0=no damage to plant)” value is 60.

For `Cc1cc(C)c(C2C(=O)CC(CC3CCN(C(=O)C4CC4)CC3)C2=O)c(C)c1` (stereo not shown) [Compound T88], in test [1], the crop damage to winter wheat at 250 g/ha came to 70%. Moreover, the pest or weed control at 250 g/ha was 90% in the test with Avena fatua (AVEFA) [2]; 90% in [3]; 90% in [4]; 100% in the test on Lolium perenne (LOLPE) [5]; 100% with Avena fatua (AVEFA) [7]; 90% in [8]. The pest or weed control at 250 g/ha amounted to 90% with Lolium perenne (LOLPE) [9] and 80% in test [10]. The “Winter Wheat (Hereward) + cloquintocet mexyl damage (100=total damage to plant; 0=no damage to plant)” value in test [6] worked out at 50.

As to `COC(=O)N1CCC(CC2CC(=O)C(c3c(C)cc(C)cc3C)C2=O)CC1` (stereo not shown) [Compound T98], the crop damage to winter wheat at 250 g/ha in [1] worked out at 90%. Besides, the pest or weed control at 250 g/ha is 80% in the test on Avena fatua (AVEFA) [2]; 70% in test [3]; 100% in [4]; 90% with Lolium perenne (LOLPE) [5]; 100% in the test with Avena fatua (AVEFA) [7]; 90% in [8]. The pest or weed control at 250 g/ha amounted to 100% with Lolium perenne (LOLPE) [9] and 90% in [10]. The “Winter Wheat (Hereward) + cloquintocet mexyl damage (100=total damage to plant; 0=no damage to plant)” value in test [6] turned out to be 60.
